Legend:
[1] = molecular target: Ribosomal protein S6 kinase alpha-4 (Homo sapiens) (UniProt O75676); experiment: Selectivity interaction (KinomeScan (DiscoverX)) EUB0000618a RPS6KA4; conditions: at 10 µM
[2] = molecular target: Cyclin-dependent kinase-like 3 (Homo sapiens) (UniProt Q8IVW4); experiment: Selectivity interaction (KinomeScan (DiscoverX)) EUB0000595a CDKL3; conditions: at 10 µM
[3] = Selectivity interaction (KinomeScan (DiscoverX)) EUB0000595a CDK2H; conditions: at 10 µM
[4] = molecular target: T1, Ephrin type-B receptor 3 (Homo sapiens) (UniProt P54753); conditions: at 10 µM
T1 sequence (whole entry): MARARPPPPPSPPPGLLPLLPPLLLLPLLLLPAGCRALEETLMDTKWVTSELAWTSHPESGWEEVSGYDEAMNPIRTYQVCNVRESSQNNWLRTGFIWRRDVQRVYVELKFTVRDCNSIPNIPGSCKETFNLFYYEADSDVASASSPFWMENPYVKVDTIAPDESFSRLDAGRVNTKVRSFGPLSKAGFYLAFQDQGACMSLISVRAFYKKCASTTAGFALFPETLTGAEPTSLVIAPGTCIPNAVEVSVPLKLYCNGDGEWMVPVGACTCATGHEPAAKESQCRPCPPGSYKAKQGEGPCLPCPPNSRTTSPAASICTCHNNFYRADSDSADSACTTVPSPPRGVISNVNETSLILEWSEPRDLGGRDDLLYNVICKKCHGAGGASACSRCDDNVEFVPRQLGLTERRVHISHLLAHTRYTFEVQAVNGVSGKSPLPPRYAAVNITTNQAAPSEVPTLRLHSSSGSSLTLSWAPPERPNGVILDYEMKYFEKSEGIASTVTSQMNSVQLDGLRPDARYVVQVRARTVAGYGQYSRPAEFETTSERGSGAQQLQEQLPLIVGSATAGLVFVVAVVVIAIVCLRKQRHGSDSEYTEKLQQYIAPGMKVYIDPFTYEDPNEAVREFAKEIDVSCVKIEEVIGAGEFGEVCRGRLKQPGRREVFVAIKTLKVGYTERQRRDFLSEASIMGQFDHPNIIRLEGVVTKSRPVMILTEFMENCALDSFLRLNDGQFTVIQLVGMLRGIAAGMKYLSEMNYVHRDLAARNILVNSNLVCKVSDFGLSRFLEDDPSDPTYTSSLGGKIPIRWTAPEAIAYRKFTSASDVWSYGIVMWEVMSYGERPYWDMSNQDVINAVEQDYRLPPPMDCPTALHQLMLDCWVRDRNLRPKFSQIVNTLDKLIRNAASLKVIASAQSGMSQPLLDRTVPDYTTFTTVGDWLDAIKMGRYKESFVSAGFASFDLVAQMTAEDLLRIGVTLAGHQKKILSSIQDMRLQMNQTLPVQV

[5] = molecular target: T2, Serine/threonine-protein kinase TAO3 (Homo sapiens) (UniProt Q9H2K8); experiment: Selectivity interaction (ActivX KiNativ screen (kinase selectivity in THP-1 cell lysates)) EUB0000639a TAOK3; format: subcellular; conditions: lysate
T2 sequence (whole entry): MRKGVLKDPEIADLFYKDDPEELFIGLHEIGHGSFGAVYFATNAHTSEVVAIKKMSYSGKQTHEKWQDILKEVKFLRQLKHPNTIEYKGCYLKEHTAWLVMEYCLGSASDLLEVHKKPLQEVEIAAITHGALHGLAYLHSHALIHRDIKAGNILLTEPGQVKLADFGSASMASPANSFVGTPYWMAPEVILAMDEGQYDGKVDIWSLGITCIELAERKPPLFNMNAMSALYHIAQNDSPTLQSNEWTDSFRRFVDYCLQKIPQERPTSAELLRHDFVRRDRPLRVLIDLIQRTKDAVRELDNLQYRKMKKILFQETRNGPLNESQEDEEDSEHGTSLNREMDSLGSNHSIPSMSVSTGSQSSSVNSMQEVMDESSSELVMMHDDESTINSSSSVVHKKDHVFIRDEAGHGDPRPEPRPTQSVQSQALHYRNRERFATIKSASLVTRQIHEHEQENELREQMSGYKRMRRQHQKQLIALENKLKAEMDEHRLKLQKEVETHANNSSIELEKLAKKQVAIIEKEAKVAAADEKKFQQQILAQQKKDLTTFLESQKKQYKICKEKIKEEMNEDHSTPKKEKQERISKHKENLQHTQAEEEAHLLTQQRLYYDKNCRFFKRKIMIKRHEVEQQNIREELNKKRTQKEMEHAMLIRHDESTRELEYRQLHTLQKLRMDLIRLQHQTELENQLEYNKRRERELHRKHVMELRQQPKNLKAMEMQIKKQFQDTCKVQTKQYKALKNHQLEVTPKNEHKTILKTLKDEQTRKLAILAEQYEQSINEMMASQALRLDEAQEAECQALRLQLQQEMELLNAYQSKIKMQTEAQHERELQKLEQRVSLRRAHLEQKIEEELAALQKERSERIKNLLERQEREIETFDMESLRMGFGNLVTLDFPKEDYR

[6] = molecular target: Tyrosine-protein kinase BTK (Homo sapiens, UniProt Q06187); experiment: Selectivity interaction (Kinome Scan (DiscoverX)) EUB0000229b BTK; conditions: at 10 µM
Chain of Tyrosine-protein kinase BTK (Q06187 whole entry): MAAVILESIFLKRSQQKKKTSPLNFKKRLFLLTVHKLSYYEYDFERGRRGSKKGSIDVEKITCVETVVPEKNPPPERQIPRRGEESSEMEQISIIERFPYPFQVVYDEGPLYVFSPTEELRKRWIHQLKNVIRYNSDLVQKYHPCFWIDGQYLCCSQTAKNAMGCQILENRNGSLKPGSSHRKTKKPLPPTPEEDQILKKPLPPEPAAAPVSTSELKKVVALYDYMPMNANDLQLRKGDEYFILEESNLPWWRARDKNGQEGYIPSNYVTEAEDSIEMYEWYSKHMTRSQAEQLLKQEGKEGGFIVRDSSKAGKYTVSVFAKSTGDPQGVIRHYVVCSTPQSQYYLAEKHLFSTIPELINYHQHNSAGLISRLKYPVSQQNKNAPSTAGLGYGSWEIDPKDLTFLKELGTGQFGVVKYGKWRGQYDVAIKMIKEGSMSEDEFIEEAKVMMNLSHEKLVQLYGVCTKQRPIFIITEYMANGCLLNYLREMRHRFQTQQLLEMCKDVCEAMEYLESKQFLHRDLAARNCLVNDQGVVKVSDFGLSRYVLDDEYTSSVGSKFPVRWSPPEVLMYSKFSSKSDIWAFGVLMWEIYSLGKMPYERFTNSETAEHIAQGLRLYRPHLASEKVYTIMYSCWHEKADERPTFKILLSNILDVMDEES

[7] = molecular target: Serine/threonine-protein kinase 16 (Homo sapiens, UniProt O75716); experiment: Selectivity interaction (ProQinase) EUB0000171b STK16
Chain of Serine/threonine-protein kinase 16 (O75716 whole entry): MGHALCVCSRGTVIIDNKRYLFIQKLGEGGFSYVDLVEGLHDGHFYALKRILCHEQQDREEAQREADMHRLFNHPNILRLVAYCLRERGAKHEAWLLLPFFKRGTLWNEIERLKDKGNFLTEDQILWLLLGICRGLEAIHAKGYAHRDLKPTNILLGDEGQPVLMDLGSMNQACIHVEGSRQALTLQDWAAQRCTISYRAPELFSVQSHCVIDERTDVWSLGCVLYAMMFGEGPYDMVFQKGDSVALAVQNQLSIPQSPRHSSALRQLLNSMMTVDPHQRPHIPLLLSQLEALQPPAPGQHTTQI

[8] = molecular target: T3, Serine/threonine-protein kinase Nek3 (Homo sapiens) (UniProt P51956); experiment: Selectivity interaction (KinomeScan (DiscoverX)) EUB0001049a NEK3; conditions: at 1 µM
T3 sequence (whole entry): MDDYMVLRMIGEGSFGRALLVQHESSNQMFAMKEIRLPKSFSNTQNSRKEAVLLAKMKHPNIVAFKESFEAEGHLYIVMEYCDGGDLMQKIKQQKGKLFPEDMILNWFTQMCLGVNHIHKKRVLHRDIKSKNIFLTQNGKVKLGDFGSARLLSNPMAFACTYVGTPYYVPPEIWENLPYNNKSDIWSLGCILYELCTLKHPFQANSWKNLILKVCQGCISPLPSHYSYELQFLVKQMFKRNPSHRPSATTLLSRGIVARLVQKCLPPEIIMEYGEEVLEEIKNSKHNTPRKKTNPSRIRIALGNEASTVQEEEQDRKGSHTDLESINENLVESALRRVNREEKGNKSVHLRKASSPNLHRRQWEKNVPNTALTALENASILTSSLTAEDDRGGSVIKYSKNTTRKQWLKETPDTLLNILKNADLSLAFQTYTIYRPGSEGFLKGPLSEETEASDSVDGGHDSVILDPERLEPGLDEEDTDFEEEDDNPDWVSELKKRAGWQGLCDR

Chain of Ribosomal protein S6 kinase alpha-4 (Homo sapiens) (O75676 whole entry, looked up): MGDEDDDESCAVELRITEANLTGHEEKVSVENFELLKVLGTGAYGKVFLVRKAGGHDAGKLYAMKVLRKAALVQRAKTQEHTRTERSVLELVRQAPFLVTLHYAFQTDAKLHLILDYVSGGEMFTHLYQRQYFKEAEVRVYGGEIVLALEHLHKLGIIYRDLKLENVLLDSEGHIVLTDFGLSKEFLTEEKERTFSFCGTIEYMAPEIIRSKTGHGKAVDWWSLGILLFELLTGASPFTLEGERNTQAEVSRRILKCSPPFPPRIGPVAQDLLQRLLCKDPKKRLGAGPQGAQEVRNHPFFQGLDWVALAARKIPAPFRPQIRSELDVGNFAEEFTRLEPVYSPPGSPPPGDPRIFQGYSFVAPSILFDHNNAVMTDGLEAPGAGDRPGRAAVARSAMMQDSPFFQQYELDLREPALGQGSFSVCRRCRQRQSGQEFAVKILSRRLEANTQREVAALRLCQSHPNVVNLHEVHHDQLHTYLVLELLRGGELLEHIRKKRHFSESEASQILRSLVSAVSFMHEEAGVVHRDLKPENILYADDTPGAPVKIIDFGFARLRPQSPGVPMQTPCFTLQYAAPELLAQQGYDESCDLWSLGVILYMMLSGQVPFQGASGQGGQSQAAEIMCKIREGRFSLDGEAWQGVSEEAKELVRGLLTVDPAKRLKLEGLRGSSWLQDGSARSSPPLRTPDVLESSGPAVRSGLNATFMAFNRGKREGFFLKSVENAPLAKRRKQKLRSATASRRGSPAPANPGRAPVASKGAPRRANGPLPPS
Chain of Cyclin-dependent kinase-like 3 (Homo sapiens) (Q8IVW4 whole entry, looked up): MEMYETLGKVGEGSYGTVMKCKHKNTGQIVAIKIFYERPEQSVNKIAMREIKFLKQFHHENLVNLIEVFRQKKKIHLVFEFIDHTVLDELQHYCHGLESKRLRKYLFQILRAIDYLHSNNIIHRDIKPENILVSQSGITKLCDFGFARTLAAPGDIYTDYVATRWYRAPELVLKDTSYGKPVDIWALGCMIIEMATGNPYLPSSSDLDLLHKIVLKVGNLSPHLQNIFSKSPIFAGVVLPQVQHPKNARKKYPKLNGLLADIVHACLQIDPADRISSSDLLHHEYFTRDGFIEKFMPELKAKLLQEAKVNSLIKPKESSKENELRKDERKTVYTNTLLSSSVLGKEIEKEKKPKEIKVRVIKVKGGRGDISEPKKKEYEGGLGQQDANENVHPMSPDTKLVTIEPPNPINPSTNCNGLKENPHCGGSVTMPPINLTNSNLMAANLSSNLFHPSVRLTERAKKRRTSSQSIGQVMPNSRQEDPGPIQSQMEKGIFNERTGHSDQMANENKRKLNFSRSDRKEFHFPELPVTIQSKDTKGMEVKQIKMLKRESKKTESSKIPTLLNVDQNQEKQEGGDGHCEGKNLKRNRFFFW

Structure (SMILES): O[C@H]1CC[C@H](Nc2ncc3nc(Nc4c(F)cc(F)cc4F)n([C@H]4CCOC4)c3n2)CC1
- % of control [1]: 100%

Structure (SMILES): COCC(=O)NC/C=C/c1ccc2ncnc(Nc3ccc(Oc4ccc(C)nc4)c(C)c3)c2c1 [CP-724714]
- % of control [2]: 100%
- % of control [3]: 100%

Structure (SMILES): Cc1cc([C@@H](C)Nc2ccccc2C(=O)O)c2nc(N3CCOCC3)cc(=O)n2c1 [AZD-6482]
- % of control [4]: 100%

Structure (SMILES): CC[C@@H]1[C@H](F)C(=O)N[C@@H]1COc1nccc2cc(C(N)=O)c(OC)cc12 [ZIMLOVISERTIB]
- % of inhibition ([5]; at 0.01 µM): 6.6%
- % of inhibition ([5]; at 0.04 µM): -1.6%
- % of inhibition ([5]; at 0.2 µM): 6.9%
- % of inhibition ([5]; at 1 µM): 12.9%
- % of inhibition ([5]; at 5 µM): 41.7%

Structure (SMILES): COc1cc(N(C)c2ccnc3ccc(C(F)(F)F)cc23)cc(OC)c1OC
- % binding [6]: 100%

Structure (SMILES): C=CC(=O)Nc1cccc(C(=O)Nc2ccc(Nc3cc(-c4[nH]c(SC)nc4C)ccn3)cc2)c1
- % of control ([7]; at 1 µM): 23%
- % of control ([7]; at 5 µM): 6%

Structure (SMILES): COc1cc(Nc2nc(C)cc(-c3cnn4nc(OC)ccc34)n2)cc(C(F)(F)F)c1
- % of control [8]: 92%
